Laboratory results reported in paper PMC5513037, “Examining the influence of specificity ligands and ATP-competitive ligands on the overall effectiveness of bivalent kinase inhibitors” (Proteome Science, 2017).

Key:
Assay in all cases: KAM-matrix competition in K562 lysate;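 for 0.001 uM KAM: median log10 fold change of treatment over DMSO control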;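 for 0.01 uM KAM: median log10 fold change of treatment over DMSO control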;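 for 0.1 uM KAM: median log10 fold change of treatment over DMSO control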;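 for 1 uM KAM: median log10 fold change of treatment over DMSO control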;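 for 10 uM KAM: median log10 fold change of treatment over DMSO control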
Assay type in all cases: binding
PTK2B = target: T1, PTK2B (Homo sapiens, UniProt Q14289)
T1 construct: endogenous in cells; host or cells: K562
Procedure: (§1) Supplement 12953_2017_125_MOESM1_ESM.zip/MS_Supp Info.xlsx, sheet "KAM" | column: 10 uM KAM; 1 uM KAM; 0.1 uM KAM; 0.01 uM KAM; 0.001 uM KAM; RB50

BTK = target: T2, BTK (Homo sapiens, UniProt Q06187)
T2 construct: endogenous in cells; host or cells: K562
Procedure: as §1

CSNK2A1 = target: T3, CSNK2A1 (Homo sapiens, UniProt P68400)
T3 construct: endogenous in cells; host or cells: K562
Procedure: as §1

PKMYT1 = target: T4, PKMYT1 (Homo sapiens, UniProt Q99640);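 for 0.001 uM KAM: median log10 fold change of treatment over DMSO control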;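 for 0.01 uM KAM: median log10 fold change of treatment over DMSO control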;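 for 0.1 uM KAM: median log10 fold change of treatment over DMSO control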;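 for 1 uM KAM: median log10 fold change of treatment over DMSO control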;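 for 10 uM KAM: median log10 fold change of treatment over DMSO control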
T4 construct: endogenous in cells; host or cells: K562
T4 sequence (Q99640 1-499): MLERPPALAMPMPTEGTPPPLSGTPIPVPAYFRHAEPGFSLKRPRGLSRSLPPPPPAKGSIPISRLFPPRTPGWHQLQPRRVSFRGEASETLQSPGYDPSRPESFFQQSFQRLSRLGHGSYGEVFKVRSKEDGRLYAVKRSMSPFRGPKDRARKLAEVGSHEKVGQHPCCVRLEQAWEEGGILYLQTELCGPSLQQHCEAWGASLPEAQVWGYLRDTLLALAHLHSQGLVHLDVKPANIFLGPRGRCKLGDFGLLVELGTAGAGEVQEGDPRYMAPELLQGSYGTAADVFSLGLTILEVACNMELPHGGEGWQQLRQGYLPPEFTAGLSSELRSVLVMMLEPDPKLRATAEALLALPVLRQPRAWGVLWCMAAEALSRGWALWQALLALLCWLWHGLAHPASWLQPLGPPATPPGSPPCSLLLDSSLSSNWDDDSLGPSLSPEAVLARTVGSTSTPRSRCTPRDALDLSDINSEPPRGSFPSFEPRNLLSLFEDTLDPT
Procedure: as §1

JAK1 = target: T5, JAK1 (Homo sapiens, UniProt P23458)
T5 construct: endogenous in cells; host or cells: K562
Procedure: as §1

ROCK2 = target: T6, ROCK2 (Homo sapiens, UniProt O75116);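 for 0.001 uM KAM: median log10 fold change of treatment over DMSO control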;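 for 0.01 uM KAM: median log10 fold change of treatment over DMSO control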;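 for 0.1 uM KAM: median log10 fold change of treatment over DMSO control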;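 for 1 uM KAM: median log10 fold change of treatment over DMSO control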;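 for 10 uM KAM: median log10 fold change of treatment over DMSO control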
T6 construct: endogenous in cells; host or cells: K562
Procedure: as §1

ATR = target: T7, ATR (Homo sapiens, UniProt Q13535);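 for 0.001 uM KAM: median log10 fold change of treatment over DMSO control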;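 for 0.01 uM KAM: median log10 fold change of treatment over DMSO control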;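 for 0.1 uM KAM: median log10 fold change of treatment over DMSO control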;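 for 1 uM KAM: median log10 fold change of treatment over DMSO control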;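 for 10 uM KAM: median log10 fold change of treatment over DMSO control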
T7 construct: endogenous in cells; host or cells: K562
Procedure: as §1

NEK1 = target: T8, NEK1 (Homo sapiens, UniProt Q96PY6)
T8 construct: endogenous in cells; host or cells: K562
T8 sequence (Q96PY6 1-1258): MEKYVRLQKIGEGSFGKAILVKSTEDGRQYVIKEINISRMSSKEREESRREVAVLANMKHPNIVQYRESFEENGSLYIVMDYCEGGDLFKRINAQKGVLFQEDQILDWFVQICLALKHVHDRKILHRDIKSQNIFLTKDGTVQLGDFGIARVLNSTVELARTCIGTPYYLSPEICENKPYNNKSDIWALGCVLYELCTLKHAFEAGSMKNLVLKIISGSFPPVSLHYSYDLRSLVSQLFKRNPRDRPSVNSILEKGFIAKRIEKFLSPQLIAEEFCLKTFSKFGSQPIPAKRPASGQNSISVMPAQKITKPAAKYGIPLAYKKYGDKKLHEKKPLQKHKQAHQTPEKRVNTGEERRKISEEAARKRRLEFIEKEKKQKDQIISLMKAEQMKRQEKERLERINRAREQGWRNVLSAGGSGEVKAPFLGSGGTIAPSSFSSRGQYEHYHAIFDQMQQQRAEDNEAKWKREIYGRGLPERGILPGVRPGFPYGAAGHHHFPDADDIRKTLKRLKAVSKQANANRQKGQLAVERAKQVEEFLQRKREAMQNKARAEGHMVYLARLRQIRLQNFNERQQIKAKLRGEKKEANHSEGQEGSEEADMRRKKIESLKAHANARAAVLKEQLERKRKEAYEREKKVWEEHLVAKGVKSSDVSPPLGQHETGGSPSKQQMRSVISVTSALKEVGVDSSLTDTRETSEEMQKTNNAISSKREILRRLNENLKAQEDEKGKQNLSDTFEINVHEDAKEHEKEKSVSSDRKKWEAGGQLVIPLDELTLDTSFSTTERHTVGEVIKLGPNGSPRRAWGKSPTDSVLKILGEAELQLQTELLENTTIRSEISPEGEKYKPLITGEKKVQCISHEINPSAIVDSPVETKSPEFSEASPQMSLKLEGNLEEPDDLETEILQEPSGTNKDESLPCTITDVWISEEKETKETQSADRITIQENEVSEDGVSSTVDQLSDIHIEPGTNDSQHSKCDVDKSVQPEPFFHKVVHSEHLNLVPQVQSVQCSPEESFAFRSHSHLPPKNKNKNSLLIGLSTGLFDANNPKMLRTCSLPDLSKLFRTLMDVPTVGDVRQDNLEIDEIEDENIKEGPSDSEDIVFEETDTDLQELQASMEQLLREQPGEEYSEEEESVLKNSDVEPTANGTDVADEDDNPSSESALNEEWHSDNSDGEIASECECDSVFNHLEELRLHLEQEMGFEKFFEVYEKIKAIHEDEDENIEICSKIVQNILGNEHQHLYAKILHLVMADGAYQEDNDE
Procedure: as §1

[1] = read-out: RB50 (the source's name)
[2] = KAM 0.001-10 uM, read-out: RB50 (the source's name)

T3 sequence (P68400 whole entry): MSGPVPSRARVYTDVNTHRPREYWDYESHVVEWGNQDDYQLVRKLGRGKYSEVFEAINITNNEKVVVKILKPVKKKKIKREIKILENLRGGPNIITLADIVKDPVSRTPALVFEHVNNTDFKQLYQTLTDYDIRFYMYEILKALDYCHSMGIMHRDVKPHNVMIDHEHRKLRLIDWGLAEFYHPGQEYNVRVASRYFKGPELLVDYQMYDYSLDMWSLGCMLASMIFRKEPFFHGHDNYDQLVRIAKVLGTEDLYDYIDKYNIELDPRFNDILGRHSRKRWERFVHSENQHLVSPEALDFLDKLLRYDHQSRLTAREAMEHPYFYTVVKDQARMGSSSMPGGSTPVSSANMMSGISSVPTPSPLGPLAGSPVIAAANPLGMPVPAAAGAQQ
T1 sequence (Q14289 whole entry): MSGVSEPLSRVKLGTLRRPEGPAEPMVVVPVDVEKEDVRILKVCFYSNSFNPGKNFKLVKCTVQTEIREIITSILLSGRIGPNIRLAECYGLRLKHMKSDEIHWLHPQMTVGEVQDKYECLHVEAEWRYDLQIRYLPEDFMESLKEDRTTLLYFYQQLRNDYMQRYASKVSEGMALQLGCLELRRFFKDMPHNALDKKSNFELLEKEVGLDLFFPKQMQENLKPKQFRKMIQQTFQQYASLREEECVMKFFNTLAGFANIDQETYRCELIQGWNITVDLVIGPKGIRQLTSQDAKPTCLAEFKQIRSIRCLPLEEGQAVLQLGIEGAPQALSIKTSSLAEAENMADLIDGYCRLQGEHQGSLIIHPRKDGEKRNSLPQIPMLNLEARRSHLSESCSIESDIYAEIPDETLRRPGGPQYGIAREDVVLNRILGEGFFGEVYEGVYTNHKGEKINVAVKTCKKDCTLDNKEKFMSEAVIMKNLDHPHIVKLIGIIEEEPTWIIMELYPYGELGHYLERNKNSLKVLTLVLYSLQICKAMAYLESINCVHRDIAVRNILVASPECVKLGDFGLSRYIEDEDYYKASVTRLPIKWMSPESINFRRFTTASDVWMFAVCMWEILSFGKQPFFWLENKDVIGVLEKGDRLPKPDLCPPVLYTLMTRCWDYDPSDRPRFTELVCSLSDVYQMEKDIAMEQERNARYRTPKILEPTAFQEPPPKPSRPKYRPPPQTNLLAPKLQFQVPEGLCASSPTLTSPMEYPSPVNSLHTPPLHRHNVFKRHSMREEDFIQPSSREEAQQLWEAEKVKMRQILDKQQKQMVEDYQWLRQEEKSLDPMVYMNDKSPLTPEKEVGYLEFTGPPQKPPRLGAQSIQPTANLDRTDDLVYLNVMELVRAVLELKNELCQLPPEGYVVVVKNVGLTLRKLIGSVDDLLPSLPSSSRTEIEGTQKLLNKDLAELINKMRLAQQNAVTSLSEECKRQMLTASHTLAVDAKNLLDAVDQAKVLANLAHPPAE
T2 sequence (Q06187 whole entry): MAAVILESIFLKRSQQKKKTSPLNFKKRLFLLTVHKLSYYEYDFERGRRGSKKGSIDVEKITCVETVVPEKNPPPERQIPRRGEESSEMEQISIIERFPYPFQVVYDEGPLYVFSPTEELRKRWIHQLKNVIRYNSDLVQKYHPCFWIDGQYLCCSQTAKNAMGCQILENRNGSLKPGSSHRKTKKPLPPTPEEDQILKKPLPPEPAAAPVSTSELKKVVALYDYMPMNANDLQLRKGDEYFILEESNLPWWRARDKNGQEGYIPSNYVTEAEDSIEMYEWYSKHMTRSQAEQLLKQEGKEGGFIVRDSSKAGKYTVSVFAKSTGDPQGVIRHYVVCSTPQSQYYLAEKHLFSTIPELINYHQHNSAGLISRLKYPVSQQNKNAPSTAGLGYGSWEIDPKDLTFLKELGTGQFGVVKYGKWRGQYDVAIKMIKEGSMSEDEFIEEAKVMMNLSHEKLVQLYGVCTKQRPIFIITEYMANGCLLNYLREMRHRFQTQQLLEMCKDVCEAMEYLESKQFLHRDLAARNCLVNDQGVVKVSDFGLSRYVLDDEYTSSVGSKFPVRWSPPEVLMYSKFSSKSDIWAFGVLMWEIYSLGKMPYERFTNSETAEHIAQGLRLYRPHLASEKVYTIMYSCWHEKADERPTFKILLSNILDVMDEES
T6 sequence (O75116 whole entry): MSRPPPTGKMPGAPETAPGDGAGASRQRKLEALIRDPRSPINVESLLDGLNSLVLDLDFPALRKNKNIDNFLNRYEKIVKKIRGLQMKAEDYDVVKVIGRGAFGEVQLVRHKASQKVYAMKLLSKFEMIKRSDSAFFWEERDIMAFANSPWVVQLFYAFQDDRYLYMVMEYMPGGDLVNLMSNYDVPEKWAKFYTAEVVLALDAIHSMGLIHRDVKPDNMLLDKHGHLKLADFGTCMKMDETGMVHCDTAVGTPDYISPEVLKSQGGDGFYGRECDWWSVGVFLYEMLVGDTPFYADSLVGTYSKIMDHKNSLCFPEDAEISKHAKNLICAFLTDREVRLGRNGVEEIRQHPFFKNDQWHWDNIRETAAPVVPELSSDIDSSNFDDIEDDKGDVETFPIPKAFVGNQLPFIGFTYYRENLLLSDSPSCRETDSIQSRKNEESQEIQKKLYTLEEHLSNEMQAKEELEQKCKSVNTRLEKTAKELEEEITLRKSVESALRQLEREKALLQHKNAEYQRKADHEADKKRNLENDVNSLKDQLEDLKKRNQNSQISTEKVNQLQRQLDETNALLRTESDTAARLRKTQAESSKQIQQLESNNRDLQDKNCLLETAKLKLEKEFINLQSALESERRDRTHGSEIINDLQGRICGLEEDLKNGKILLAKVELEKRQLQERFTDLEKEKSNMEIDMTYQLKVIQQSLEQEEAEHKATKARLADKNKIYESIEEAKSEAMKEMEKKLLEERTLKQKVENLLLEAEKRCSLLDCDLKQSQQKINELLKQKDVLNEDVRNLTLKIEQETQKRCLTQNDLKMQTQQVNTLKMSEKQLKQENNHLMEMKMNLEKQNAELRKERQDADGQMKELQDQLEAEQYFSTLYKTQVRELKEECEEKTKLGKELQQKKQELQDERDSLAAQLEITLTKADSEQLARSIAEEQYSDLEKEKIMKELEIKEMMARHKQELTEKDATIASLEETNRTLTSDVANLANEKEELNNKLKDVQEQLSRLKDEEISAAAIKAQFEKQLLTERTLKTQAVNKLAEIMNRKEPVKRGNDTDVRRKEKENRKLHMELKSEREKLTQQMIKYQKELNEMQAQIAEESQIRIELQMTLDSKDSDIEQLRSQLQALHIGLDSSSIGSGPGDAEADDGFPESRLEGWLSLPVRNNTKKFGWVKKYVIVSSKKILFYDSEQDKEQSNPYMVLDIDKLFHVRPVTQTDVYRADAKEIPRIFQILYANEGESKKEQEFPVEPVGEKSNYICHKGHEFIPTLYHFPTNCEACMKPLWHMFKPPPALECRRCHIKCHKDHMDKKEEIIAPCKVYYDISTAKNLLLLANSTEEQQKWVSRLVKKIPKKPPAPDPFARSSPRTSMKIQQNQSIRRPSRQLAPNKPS
T5 sequence (P23458 whole entry): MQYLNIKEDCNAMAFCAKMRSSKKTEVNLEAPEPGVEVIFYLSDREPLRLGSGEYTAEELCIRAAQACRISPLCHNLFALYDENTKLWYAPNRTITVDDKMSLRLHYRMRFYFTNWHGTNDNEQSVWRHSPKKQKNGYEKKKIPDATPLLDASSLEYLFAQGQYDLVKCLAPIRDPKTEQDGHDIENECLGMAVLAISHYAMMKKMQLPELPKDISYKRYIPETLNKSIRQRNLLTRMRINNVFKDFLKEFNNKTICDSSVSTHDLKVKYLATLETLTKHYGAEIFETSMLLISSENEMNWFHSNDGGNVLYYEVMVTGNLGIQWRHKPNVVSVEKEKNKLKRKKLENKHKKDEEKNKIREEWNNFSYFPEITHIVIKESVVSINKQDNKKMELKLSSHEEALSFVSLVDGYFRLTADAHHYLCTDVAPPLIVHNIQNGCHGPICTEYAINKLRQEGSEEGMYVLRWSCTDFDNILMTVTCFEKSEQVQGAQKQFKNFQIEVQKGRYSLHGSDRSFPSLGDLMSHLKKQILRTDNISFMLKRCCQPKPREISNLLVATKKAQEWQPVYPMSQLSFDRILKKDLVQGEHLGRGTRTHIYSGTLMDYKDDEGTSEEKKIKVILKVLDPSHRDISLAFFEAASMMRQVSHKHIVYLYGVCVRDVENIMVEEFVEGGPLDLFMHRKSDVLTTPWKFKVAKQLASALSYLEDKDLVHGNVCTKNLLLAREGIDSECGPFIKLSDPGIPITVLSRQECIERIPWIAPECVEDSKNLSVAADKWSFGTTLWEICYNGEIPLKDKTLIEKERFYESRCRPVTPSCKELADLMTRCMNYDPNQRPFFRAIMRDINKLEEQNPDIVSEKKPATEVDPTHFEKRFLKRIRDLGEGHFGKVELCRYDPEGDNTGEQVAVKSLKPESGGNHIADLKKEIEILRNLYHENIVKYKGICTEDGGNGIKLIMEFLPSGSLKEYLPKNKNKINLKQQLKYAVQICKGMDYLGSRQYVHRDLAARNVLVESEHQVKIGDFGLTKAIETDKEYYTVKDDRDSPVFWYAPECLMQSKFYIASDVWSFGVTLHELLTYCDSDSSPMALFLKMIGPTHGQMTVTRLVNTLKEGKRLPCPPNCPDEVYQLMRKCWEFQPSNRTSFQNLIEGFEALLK

N#CCc1ccc(Nc2nc(NCCCN)cc(Nc3cc(C4CC4)[nH]n3)n2)cc1 [KAM]
median Log10 fold change (PTK2B; 0.001 uM KAM): -0.01732 | median Log10 fold change (PTK2B; 0.01 uM KAM): -0.009714 | median Log10 fold change (PTK2B; 0.1 uM KAM): -0.1905 | median Log10 fold change (PTK2B; 1 uM KAM): -0.4119 | median Log10 fold change (PTK2B; 10 uM KAM): -0.5329 | IC50 (PTK2B; [1]): 460 nM | median Log10 fold change (BTK; 0.001 uM KAM): -0.05218 | median Log10 fold change (BTK; 0.01 uM KAM): -0.04172 | median Log10 fold change (BTK; 0.1 uM KAM): -0.1708 | median Log10 fold change (BTK; 1 uM KAM): -0.3888 | median Log10 fold change (BTK; 10 uM KAM): -0.5091 | IC50 (BTK; [1]): 566 nM | median Log10 fold change (CSNK2A1; 0.001 uM KAM): -0.001285 | median Log10 fold change (CSNK2A1; 0.01 uM KAM): -0.02001 | median Log10 fold change (CSNK2A1; 0.1 uM KAM): -0.3204 | median Log10 fold change (CSNK2A1; 1 uM KAM): -0.6577 | median Log10 fold change (CSNK2A1; 10 uM KAM): -0.7357 | IC50 (CSNK2A1; [1]): 117 nM | IC50 (PKMYT1; [2]): > 10000 nM | 0.001 uM KAM (PKMYT1; relative to 0 uM KAM = 0): -0.05315 | 0.01 uM KAM (PKMYT1; relative to 0 uM KAM = 0): -0.03451 | 0.1 uM KAM (PKMYT1; relative to 0 uM KAM = 0): -0.2607 | 1 uM KAM (PKMYT1; relative to 0 uM KAM = 0): -0.4249 | 10 uM KAM (PKMYT1; relative to 0 uM KAM = 0): -0.2726 | median Log10 fold change (JAK1; 0.001 uM KAM): -0.0004094 | median Log10 fold change (JAK1; 0.01 uM KAM): 0.001552 | median Log10 fold change (JAK1; 0.1 uM KAM): -0.1118 | median Log10 fold change (JAK1; 1 uM KAM): -0.4812 | median Log10 fold change (JAK1; 10 uM KAM): -0.5497 | IC50 (JAK1; [1]): 518 nM | IC50 (ROCK2; [2]): > 10000 nM | 0.001 uM KAM (ROCK2; relative to 0 uM KAM = 0): 0.005547 | 0.01 uM KAM (ROCK2; relative to 0 uM KAM = 0): 0.004918 | 0.1 uM KAM (ROCK2; relative to 0 uM KAM = 0): -0.08686 | 1 uM KAM (ROCK2; relative to 0 uM KAM = 0): -0.1587 | 10 uM KAM (ROCK2; relative to 0 uM KAM = 0): -0.127 | IC50 (ATR; [2]): > 10000 nM | 0.001 uM KAM (ATR; relative to 0 uM KAM = 0): -0.04695 | 0.01 uM KAM (ATR; relative to 0 uM KAM = 0): 0.002576 | 0.1 uM KAM (ATR; relative to 0 uM KAM = 0): -0.08926 | 1 uM KAM (ATR; relative to 0 uM KAM = 0): -0.01418 | 10 uM KAM (ATR; relative to 0 uM KAM = 0): 0.03196 | median Log10 fold change (NEK1; 0.001 uM KAM): -0.02178 | median Log10 fold change (NEK1; 0.01 uM KAM): -0.02485 | median Log10 fold change (NEK1; 0.1 uM KAM): -0.1728 | median Log10 fold change (NEK1; 1 uM KAM): -0.239 | median Log10 fold change (NEK1; 10 uM KAM): -0.318 | IC50 (NEK1; [1]): 3390 nM
